Laboratory results as given in patent US20260250320A1, “LIPIDATED PEPTIDE INHIBITORS OF INTERLEUKIN-23 RECEPTOR” (Janssen Pharmaceutica NV, priority 2023, published 2026).
pIC50: −log10 of the molar value. *1 amine or outer side, *2 acyl side, *3 side chain or, on linkers, in order; H or OH if unused. Where a SMILES comes first, the peptide text is derived from it. Bridges are numbered along the chain shown (N, C = ends). Side-chain parts run from the residue outwards. [ ]: non-standard residue; d: D form. The star is where a group is joined. ξ: configuration not given here. X9 = O=C(O)CCCCCCCCCCCCCCCCC(=O)N[C@@H](CCC(=O)NCCOCCOCCOCCOCCOCCOCCOCCOCCOCCOCCOCCCCCC(=O)*)C(=O)O; X11 = CN(CC(N)=O)C(=O)[C@H](Cc1cccnc1)NC(O)[C@H](CC(N)=O)N*; Me3N+(CH2)2O(CH2)2O(CH2)2CO = C[N+](C)(C)CCOCCOCCC(=O)*; CH2CH2OCH2CH2OCH2CH2NMe3+ = C[N+](C)(C)CCOCCOCC*; Trp(7-Me) = Cc1cccc2c(C[C@H](N)C(=O)O)c[nH]c12; Abu(4-yl) = O=C([C@H](CC[*:3])N[*:1])[*:2]; C18 diacid = O=C(O)CCCCCCCCCCCCCCCCC(=O)*; γGlu = O=C(O)[C@H](CCC(=O)[*:2])N[*:1]; 2Nal = N[C@@H](Cc1ccc2ccccc2c1)C(=O)O; AEF = NCCOc1ccc(C[C@H](N)C(=O)O)cc1; X2 = C[N+](C)(C)C[C@@H](CC(=O)O)N*; 3Pal = N[C@@H](Cc1cccnc1)C(=O)O; Lys(Me) = CNCCCC[C@H](N)C(=O)O; aThr = C[C@H](O)[C@H](N)C(=O)O; Pen = CC(C)(S)[C@H](N)C(=O)O; Suc = O=C(CCC(=O)[*:2])[*:1]; Lauroyl = CCCCCCCCCCCC(=O)*; αMeC = C[C@](N)(CS)C(=O)O; ξR = N=C(N)NCCCC(N)C(=O)O; Thp = NC1(C(=O)O)CCOCC1; X1 = C[N+](C)(C)CCCCC*; AEEA = NCCOCCOCC(=O)O; Sar = CNCC(=O)O

Assays:
IL-23R = molecular target: T1, IL-23R (Homo sapiens, UniProt Q5VWK5); experiment: IL23R Reporter Assay; assay type: cell-based; conditions: HEK293 cells containing IL-23R, IL-12Rβ1 and STAT-inducible firefly luciferase reporter; 10 ng/mL IL-23 (EC90); 5 h
T1 construct: HEK293 cells containing IL-23R, IL-12Rβ1 and a firefly luciferase reporter gene driven by a STAT-inducible promoter (Promega); host or cells: HEK293
T1 sequence (Q5VWK5 24-629): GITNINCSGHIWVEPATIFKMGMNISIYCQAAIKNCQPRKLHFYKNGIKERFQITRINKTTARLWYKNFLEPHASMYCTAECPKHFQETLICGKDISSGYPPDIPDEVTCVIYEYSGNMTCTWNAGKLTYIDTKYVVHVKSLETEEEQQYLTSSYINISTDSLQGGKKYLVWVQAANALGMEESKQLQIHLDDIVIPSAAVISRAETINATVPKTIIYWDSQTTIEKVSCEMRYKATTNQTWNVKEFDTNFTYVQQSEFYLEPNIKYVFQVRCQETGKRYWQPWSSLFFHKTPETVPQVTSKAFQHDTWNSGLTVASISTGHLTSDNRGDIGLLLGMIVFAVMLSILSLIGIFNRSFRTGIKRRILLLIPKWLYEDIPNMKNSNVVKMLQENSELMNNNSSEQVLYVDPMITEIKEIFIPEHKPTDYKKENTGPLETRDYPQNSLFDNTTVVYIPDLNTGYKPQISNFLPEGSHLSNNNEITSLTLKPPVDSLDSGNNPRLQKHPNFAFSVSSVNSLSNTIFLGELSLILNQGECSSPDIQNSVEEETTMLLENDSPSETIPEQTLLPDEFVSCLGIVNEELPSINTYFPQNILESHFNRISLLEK
How it was run: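 IC50 values were fitted with a 4-parameter Hill equation to luciferase signal, scaled between IL-23-only wells (0% inhibition) and 30 μM reference inhibitor (100%). The readout was a STAT-inducible reporter in IL-23R/IL-12Rβ1 HEK293 cells, stimulated with added 10 ng/mL IL-23 (EC90) for 5 h at 37° C and developed with BioGlo.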

[1] = test system: IL-23-stimulated phosphorylated STAT3 in peripheral blood mononuclear cells (PBMCs); experiment: PBMC pSTAT3 Assay; assay type: cell-based; conditions: PBMCs from healthy donors; 30 min preincubation with peptide; IL-23 5 ng/mL for 30 min; phospho-STAT3 by MSD
How it was run: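 Phospho-STAT3 quantified by Meso Scale assay in lysates of PBMCs exposed to IL-23 (5 ng/mL, 30 min, 37 °C) after 30 min peptide pretreatment. Cells were cryopreserved donor PBMCs activated 4 days with anti-CD3 plus IL-1β (100 ng/mL) and starved ~4 h; IC50 reported.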

## CC(=O)NCCCC[C@@H]1NC(=O)[C@H](Cc2c[nH]c3c(C)cccc23)NC(=O)[C@H]([C@@H](C)O)NC(=O)[C@H](CCCCNC(=O)COCCOCCNC(=O)COCCOCCNC(=O)CC[C@H](NC(=O)CCCCCCCCCCCCCCCCC(=O)O)C(=O)O)NC(=O)[C@@H](NC(=O)[C@@H](CCCNC(=N)N)NC(=O)CCOCCOCC[N+](C)(C)C)C(C)(C)SSC(C)(C)[C@@H](C(=O)N[C@@H](Cc2ccc(OCCN)cc2)C(=O)N[C@@H](Cc2ccc3ccccc3c2)C(=O)NC2(C(=O)N[C@@H](CCC(=O)O)C(=O)N[C@@H](CC(N)=O)C(=O)N[C@@H](Cc3cccnc3)C(=O)N(C)CC(N)=O)CCOCC2)NC1=O [compound 55, cPEG3aCO-r-Pen(3)-K(PEG2PEG2gEC18OH)-T-7MeW-K(Ac)-Pen(3)-AEF-2Nal-THP-E-N-3Pya-Sar-CONH2] ({Me3N+(CH2)2O(CH2)2O(CH2)2CO}-[dR][Pen]K([AEEA-AEEA-γGlu-C18 diacid])T[Trp(7-Me)]K(Ac)[Pen][AEF][2Nal][Thp]EN[3Pal][Sar]-NH2; disulfide 2-7)
IL-23R
  pIC50: 6.30 to 7.30
[1]
  pIC50: > 9.30

## CC(=O)N(C)CCCC[C@@H]1NC(=O)[C@H](Cc2c[nH]c3c(C)cccc23)NC(=O)[C@H]([C@@H](C)O)NC(=O)[C@H](CCCCNC(=O)CCCCCOCCOCCOCCOCCOCCOCCOCCOCCOCCOCCOCCNC(=O)CC[C@H](NC(=O)CCCCCCCCCCCCCCCCC(=O)O)C(=O)O)NC(=O)[C@@H](NC(=O)CCOCCOCC[N+](C)(C)C)C(C)(C)SSC(C)(C)[C@@H](C(=O)N[C@@H](Cc2ccc(OCCCCC[N+](C)(C)C)cc2)C(=O)N[C@@H](Cc2ccc3ccccc3c2)C(=O)NC2(C(=O)N[C@@H](CCCCN(C)C(C)=O)C(=O)N[C@@H](CC(N)=O)C(=O)N[C@@H](Cc3cccnc3)C(=O)N(C)CC(=O)N(C)C)CCOCC2)NC1=O [compound 115, cPEG3aCO-Pen(3)-K(PEG12gEC20OH)-T-7MeW-K(NMeAc)-Pen(3)-TMAPF-2Nal-THP-K(NMeAc)-N-3Pya-Sar-CON(Me)2] ({Me3N+(CH2)2O(CH2)2O(CH2)2CO}-[Pen]K(X9)T[Trp(7-Me)][Lys(Me)](Ac)[Pen]Y(X1)[2Nal][Thp][Lys(Me)](Ac)N[3Pal][Sar]-NMe2; disulfide 1-6)
IL-23R
  pIC50: > 7.30
[1]
  pIC50: 8.30 to 9.30

## CC(=O)NCCCC[C@@H]1NC(=O)[C@H](Cc2c[nH]c3c(C)cccc23)NC(=O)[C@H]([C@@H](C)O)NC(=O)[C@H](CC(N)=O)NC(=O)[C@@H](NC(C)=O)C(C)(C)SSC(C)(C)[C@@H](C(=O)N[C@@H](Cc2ccc(OCCN)cc2)C(=O)N[C@@H](Cc2ccc3ccccc3c2)C(=O)NC2(C(=O)N[C@@H](CCCCNC(C)=O)C(=O)N[C@@H](CC(N)=O)C(=O)N[C@@H](Cc3cccnc3)C(=O)N(C)CC(=O)N[C@@H](CCCCNC(=O)CCOCCOCCOCCOCCOCCOCCOCCOCCOCCOCCOCCOCCNC(=O)CC[C@H](NC(=O)CCCCCCCCCCCCCCCCC(=O)O)C(=O)O)C(N)=O)CCOCC2)NC1=O [compound 102, MeCO-Pen(3)-N-T-7MeW-K(Ac)-Pen(3)-AEF-2Nal-THP-K(Ac)-N-3Pya-Sar-K(PEG12gEC18OH)-CONH2]
IL-23R
  pIC50: > 7.30
[1]
  pIC50: > 9.30

## CCCCCCCCCCCC(=O)N[C@@H](CCC(=O)NCCOCCOCC(=O)NCCOCCOCC(=O)NC(CCCNC(=N)N)C(=O)N[C@H]1CCSC[C@@](C)(C(=O)N[C@@H](Cc2ccc(OCCN)cc2)C(=O)N[C@@H](Cc2ccc3ccccc3c2)C(=O)NC2(C(=O)N[C@@H](CCC(=O)O)C(=O)N[C@@H](CC(N)=O)C(=O)N[C@@H](Cc3cccnc3)C(=O)N(C)CC(N)=O)CCOCC2)NC(=O)[C@H](CCCCNC(C)=O)NC(=O)[C@H](Cc2c[nH]c3ccccc23)NC(=O)[C@H]([C@H](C)O)NC(=O)[C@H](CC(N)=O)NC1=O)C(=O)O (stereo partly drawn) [compound 5, C12gEPEG2PEG2CO-r-Abu(1)-N-T-W-K(Ac)-aMeC(1)-AEF-2Nal-THP-E-N-3Pya-Sar-CONH2] ({Lauroyl-γGlu-AEEA-AEEA}-[ξR][Abu(4-yl)]N[aThr]WK(Ac)[αMeC][AEF][2Nal][Thp]EN[3Pal][Sar]-NH2; thioether 2-7)
IL-23R
  pIC50: > 7.30
[1]
  pIC50: 8.30 to 9.30

## CC(=O)NCCCC[C@@H]1NC(=O)[C@H](Cc2c[nH]c3c(C)cccc23)NC(=O)[C@H]([C@@H](C)O)NC(=O)[C@H](CC(N)=O)NC(=O)[C@@H](NC(=O)[C@@H](CCCNC(=N)N)NC(=O)COCCOCCNC(=O)COCCOCCNC(=O)CC[C@H](NC(=O)CCCCCCCCCCCCCCCCC(=O)O)C(=O)O)C(C)(C)SSC(C)(C)[C@@H](C(=O)N[C@@H](Cc2ccc(OCCN)cc2)C(=O)N[C@@H](Cc2ccc3ccccc3c2)C(=O)NC2(C(=O)N[C@@H](CCCCNC(=O)CCC(=O)N[C@H](CC(=O)O)C[N+](C)(C)C)C(=O)N[C@@H](CC(N)=O)C(O)N[C@@H](Cc3cccnc3)C(=O)N(C)CC(N)=O)CCOCC2)NC1=O (stereo partly drawn) [compound 45, HOC18gEPEG2PEG2CO-r-Pen(3)-N-T-7MeW-K(Ac)-Pen(3)-AEF-2Nal-THP-K(d)-N-3Pya-Sar-CONH2] ({C18 diacid-γGlu-AEEA-AEEA}-[dR][Pen]NT[Trp(7-Me)]K(Ac)[Pen][AEF][2Nal][Thp]K([Suc-X2])-X11; disulfide 2-7)
IL-23R
  pIC50: 6.30 to 7.30
[1]
  pIC50: > 9.30

## CC(=O)NCCCC[C@@H]1NC(=O)[C@H](Cc2c[nH]c3c(C)cccc23)NC(=O)[C@H]([C@@H](C)O)NC(=O)[C@H](CC(N)=O)NC(=O)[C@@H](NC(=O)COCCOCCNC(=O)COCCOCCNC(=O)CC[C@H](NC(=O)CCCCCCCCCCCCCCCCC(=O)O)C(=O)O)C(C)(C)SSC(C)(C)[C@@H](C(=O)N[C@@H](Cc2ccc(OCCN)cc2)C(=O)N[C@@H](Cc2ccc3ccccc3c2)C(=O)NC2(C(=O)N[C@@H](CCC(=O)O)C(=O)N[C@@H](CC(N)=O)C(=O)N[C@@H](Cc3cccnc3)C(=O)N(C)CC(N)=O)CCOCC2)NC1=O [compound 61, HOC18gEPEG2PEG2CO-Pen(3)-N-T-7MeW-K(Ac)-Pen(3)-AEF-2Nal-THP-E-N-3Pya-Sar-CONH2]
IL-23R
  pIC50: > 7.30
[1]
  pIC50: > 9.30

## CC(=O)N(C)CCCC[C@@H]1NC(=O)[C@H](Cc2c[nH]c3c(C)cccc23)NC(=O)[C@H]([C@@H](C)O)NC(=O)[C@H](CC(=O)N(C)C)NC(=O)[C@@H](NC(=O)CCOCCOCC[N+](C)(C)C)C(C)(C)SSC(C)(C)[C@@H](C(=O)N[C@@H](Cc2ccc(OCCOCCOCC[N+](C)(C)C)cc2)C(=O)N[C@@H](Cc2ccc3ccccc3c2)C(=O)NC2(C(=O)N[C@@H](CCCCNC(=O)COCCOCCNC(=O)COCCOCCNC(=O)CC[C@H](NC(=O)CCCCCCCCCCCCCCCCC(=O)O)C(=O)O)C(=O)N[C@@H](CC(N)=O)C(=O)N[C@@H](Cc3cccnc3)C(=O)N(C)CC(=O)N(C)C)CCOCC2)NC1=O [compound 156, cPEG3aCO-Pen(3)-N(N(Me)2)-T-7MeW-K(NMeAc)-Pen(3)-APEG3F-2Nal-THP-K(PEG2PEG2gEC18OH)-N-3Pya-Sar-CON(Me)2] ({Me3N+(CH2)2O(CH2)2O(CH2)2CO}-[Pen]D(NMe2)T[Trp(7-Me)][Lys(Me)](Ac)[Pen]Y(CH2CH2OCH2CH2OCH2CH2NMe3+)[2Nal][Thp]K([AEEA-AEEA-γGlu-C18 diacid])N[3Pal][Sar]-NMe2; disulfide 1-6)
IL-23R
  pIC50: 6.30 to 7.30
[1]
  pIC50: > 9.30

## CC(=O)NCCCC[C@@H]1NC(=O)[C@H](Cc2c[nH]c3c(C)cccc23)NC(=O)[C@H]([C@@H](C)O)NC(=O)[C@H](CCCCNC(=O)COCCOCCNC(=O)COCCOCCNC(=O)CC[C@H](NC(=O)CCCCCCCCCCCCCCCCC(=O)O)C(=O)O)NC(=O)[C@@H](NC(=O)[C@@H](CCCNC(=N)N)NC(C)=O)C(C)(C)SSC(C)(C)[C@@H](C(=O)N[C@@H](Cc2ccc(OCCN)cc2)C(=O)N[C@@H](Cc2ccc3ccccc3c2)C(=O)NC2(C(=O)N[C@@H](CCCCNC(=O)CCC(=O)N[C@H](CC(=O)O)C[N+](C)(C)C)C(=O)N[C@@H](CC(N)=O)C(=O)N[C@@H](Cc3cccnc3)C(=O)N(C)CC(N)=O)CCOCC2)NC1=O [compound 12, MeCO-r-Pen(3)-K(PEG2PEG2gEC18OH)-T-7MeW-K(Ac)-Pen(3)-AEF-2Nal-THP-K(d)-N-3Pya-Sar-CONH2] (Ac-[dR][Pen]K([AEEA-AEEA-γGlu-C18 diacid])T[Trp(7-Me)]K(Ac)[Pen][AEF][2Nal][Thp]K([Suc-X2])N[3Pal][Sar]-NH2; disulfide 2-7)
IL-23R
  pIC50: > 7.30
[1]
  pIC50: 8.30 to 9.30
